Test results reported in article PMC12777568 (Antimicrobial Agents and Chemotherapy, 2025).

How the values were obtained:
[1] = parameters: method as in earlier work; conditions: cited from earlier work
[2] = system: HIV-1 integrase-DNA complexes; conditions: cited from earlier work
[3] = BIC plasma pharmacokinetics, Phase 1 open-label single-dose DDI study GS-US-380-3909 (B/F/TAF 50/200/25 mg with antacid or mineral supplements); format: in vivo, human; conditions: for Cmax, reference GLSM: BIC alone (N = 14); for half-life / Vd/F / AUC(0-inf): both sexes, human, plasma, oral; for half-life: BIC T1/2, median (Q1, Q3); for Vd/F: BIC VZ/F; for Vd/F / AUC(0-inf): mean (%CV); for AUC(0-inf): BIC plasma AUCinf
Procedure: Eligible participants were adult (18–45 years) males and non-pregnant, non-lactating females in good general health at a screening evaluation performed no more than 28 days before the first study dose. […] Full eligibility criteria are available in the supplement. All prescription and over-the-counter medications except vitamins, acetaminophen, ibuprofen, and hormonal contraceptives were not permitted during study participation. Three dosing cohorts were evaluated (Table 1). […] Vitamins and/or other supplements were not permitted on the dosing day. […] Participants received maximum-strength antacid oral suspension (four teaspoons; 20 mL; 1,600 mg aluminum hydroxide/1,600 mg magnesium hydroxide/160 mg simethicone; referred to as “aluminum/magnesium-containing antacid”) on Day 9, calcium carbonate (1,200 mg; 2 × 600 mg tablets) on Day 17, and ferrous fumarate (1 × 324 mg tablet) on Day 25. […] All samples were analyzed within the timeframe determined using frozen stability storage data. […] PK parameters were estimated using Phoenix WinNonlin software (Version 6.4, Pharsight Corporation, Princeton, NJ, USA) using standard noncompartmental analysis methods. […] The estimated 90% CIs were compared to a prespecified lack of DDI boundary of 70%–143%. […] A minimum of 12 evaluable participants in each cohort was calculated to be needed to reject the null hypothesis (i.e., the 90% CI for the GLSM ratio for each PK parameter was outside the prespecified boundary) with ≥90% power.

[4] = Cohort 1 fasted, B/F/TAF + calcium carbonate simultaneous, N = 14
[5] = Cohort 1 fasted, B/F/TAF alone, N = 14
[6] = Cohort 1 fasted, simultaneous aluminum/magnesium-containing antacid
[7] = Cohort 1 fasted, simultaneous calcium carbonate
[8] = Cohort 1 fasted, simultaneous ferrous fumarate
[9] = Cohort 2 fasted, B/F/TAF 2 hours after aluminum/magnesium-containing antacid
[10] = Cohort 2 fasted, B/F/TAF 2 hours after aluminum/magnesium-containing antacid, N = 13
[11] = Cohort 2 fasted, B/F/TAF 2 hours before aluminum/magnesium-containing antacid, N = 13
[12] = Cohort 2 fasted, B/F/TAF alone, N = 14
[13] = Cohort 3, B/F/TAF alone (fasted), N = 14
[14] = Cohort 3 fed, B/F/TAF + aluminum/magnesium-containing antacid simultaneous, N = 14
[15] = Cohort 3 fed, simultaneous aluminum/magnesium-containing antacid
[16] = Cohort 1 fasted, B/F/TAF + aluminum/magnesium-containing antacid simultaneous, N = 14
[17] = Cohort 1 fasted, B/F/TAF + ferrous fumarate simultaneous, N = 14
[18] = Cohort 3 fed, B/F/TAF + ferrous fumarate simultaneous, N = 14

O=C(NCc1c(F)cc(F)cc1F)c1cn2c(c(O)c1=O)C(=O)N1[C@H]3CC[C@H](C3)O[C@@H]1C2 [BIC, bictegravir]
half-life for BIC (median T1/2) [1]: ~ 17 hours
dissociation half-life [2]: ~ 163 hours
BIC T1/2, median (Q1, Q3) [3, 4]: 21.0 (17.6, 25.0) h
BIC plasma Tmax, median (Q1, Q3) [3, 4]: 1.8 (1.5, 4.0) h
BIC plasma AUCinf, mean (%CV) [3, 5]: 121.9 (24.4) µg*h/mL
Cmax, reference GLSM ([3]; Cohort 1 fasted): 5540 ng/mL
Delay of median Tmax compared with B/F/TAF alone [3, 6]: 1 h
Increase in mean BIC CL/F compared with B/F/TAF alone [3, 6]: 404%
Increase in mean BIC Vz/F compared with B/F/TAF alone [3, 6]: 421%
Reduction in BIC AUCinf compared with B/F/TAF alone [3, 6]: 79%
Reduction in BIC C24 compared with B/F/TAF alone [3, 6]: 78%
Reduction in BIC Cmax compared with B/F/TAF alone [3, 6]: 80%
Increase in mean BIC CL/F compared with B/F/TAF alone [3, 7]: 56%
Increase in mean BIC Vz/F compared with B/F/TAF alone [3, 7]: 84%
Reduction in BIC AUCinf compared with B/F/TAF alone [3, 7]: 33%
Reduction in BIC C24 compared with B/F/TAF alone [3, 7]: 35%
Reduction in BIC Cmax compared with B/F/TAF alone [3, 7]: 42%
Delay of median Tmax compared with B/F/TAF alone [3, 8]: 1.5 h
Increase in mean BIC CL/F compared with B/F/TAF alone [3, 8]: 174%
Increase in mean BIC Vz/F compared with B/F/TAF alone [3, 8]: 216%
Reduction in BIC AUCinf compared with B/F/TAF alone [3, 8]: 63%
Reduction in BIC C24 compared with B/F/TAF alone [3, 8]: 63%
Reduction in BIC Cmax compared with B/F/TAF alone [3, 8]: 71%
Cmax, test GLSM ([3]; Cohort 2 fasted, B/F/TAF 2 h before aluminum/magnesium-containing antacid, N = 14): 5460 ng/mL
Decrease in BIC AUCinf compared with B/F/TAF alone [3, 9]: 52%
Decrease in BIC C24 compared with B/F/TAF alone [3, 9]: 53%
Decrease in BIC Cmax compared with B/F/TAF alone [3, 9]: 59%
Delay of median Tmax compared with B/F/TAF alone [3, 9]: 1 h
Increase in mean BIC CL/F compared with B/F/TAF alone [3, 9]: 124%
Increase in mean BIC VZ/F compared with B/F/TAF alone [3, 9]: 180%
BIC plasma Tmax, median (Q1, Q3) [3, 10]: 2.0 (1.5, 3.0) h
Delay of median Tmax compared with B/F/TAF alone ([3]; Cohort 2 fasted, B/F/TAF 2 hours before aluminum/magnesium-containing antacid): 1.5 h
BIC plasma Tmax, median (Q1, Q3) [3, 11]: 1.5 (1.5, 2.0) h
BIC T1/2, median (Q1, Q3) [3, 12]: 20.8 (16.5, 22.8) h
BIC plasma Tmax, median (Q1, Q3) [3, 12]: 3.0 (2.0, 3.0) h
BIC T1/2, median (Q1, Q3) [3, 13]: 18.0 (17.5, 19.9) h
BIC plasma Tmax, median (Q1, Q3) [3, 13]: 1.5 (1.5, 2.0) h
Cmax, reference GLSM ([3]; Cohort 3, fasted): 4540 ng/mL
BIC T1/2, median (Q1, Q3) [3, 14]: 17.9 (16.9, 20.2) h
Decrease in BIC AUCinf compared with B/F/TAF alone under fasted conditions [3, 15]: 47%
Decrease in BIC C24 compared with B/F/TAF alone under fasted conditions [3, 15]: 44%
Decrease in BIC Cmax compared with B/F/TAF alone under fasted conditions [3, 15]: 49%
Delay of median Tmax compared with B/F/TAF alone under fasted conditions [3, 15]: 2 h
Increase in mean BIC CL/F compared with B/F/TAF alone under fasted conditions [3, 15]: 89%
Increase in mean BIC Vz/F compared with B/F/TAF alone under fasted conditions [3, 15]: 89%
Delay of median Tmax compared with B/F/TAF alone under fasted conditions ([3]; Cohort 3 fed, simultaneous calcium carbonate): 2 h
Delay of median Tmax compared with B/F/TAF alone under fasted conditions ([3]; Cohort 3 fed, simultaneous ferrous fumarate): 2.5 h
half-life [3, 16]: 20.2 h
half-life [3, 17]: 21.9 h
half-life [3, 5]: 18.9 h
half-life [3, 10]: 24.2 h
half-life [3, 11]: 21.8 h
half-life ([3]; Cohort 3 fed, B/F/TAF + calcium carbonate simultaneous, N = 14): 18.9 h
half-life [3, 18]: 19.3 h
Vd/F [3, 16]: 61.4 L
Vd/F [3, 4]: 21.7 L
Vd/F [3, 17]: 37.3 L
Vd/F [3, 5]: 11.8 L
Vd/F [3, 10]: 31.2 L
Vd/F [3, 11]: 14.4 L
Vd/F [3, 12]: 11.2 L
Vd/F [3, 14]: 29.1 L
Vd/F [3, 18]: 19.3 L
AUC(0-inf) [3, 16]: 28000 ng·h/mL
AUC(0-inf) [3, 4]: 85000 ng·h/mL
AUC(0-inf) [3, 17]: 46100 ng·h/mL
AUC(0-inf) [3, 10]: 67700 ng·h/mL
